In BindingDB's records for PubMed 28189086 (Texas Southern University, 2017):

target: Maltase-glucoamylase (Homo sapiens, UniProt O43451); experiment: Inhibition of Alpha-glucosidase (unknown origin)
Sequence (O43451 whole entry): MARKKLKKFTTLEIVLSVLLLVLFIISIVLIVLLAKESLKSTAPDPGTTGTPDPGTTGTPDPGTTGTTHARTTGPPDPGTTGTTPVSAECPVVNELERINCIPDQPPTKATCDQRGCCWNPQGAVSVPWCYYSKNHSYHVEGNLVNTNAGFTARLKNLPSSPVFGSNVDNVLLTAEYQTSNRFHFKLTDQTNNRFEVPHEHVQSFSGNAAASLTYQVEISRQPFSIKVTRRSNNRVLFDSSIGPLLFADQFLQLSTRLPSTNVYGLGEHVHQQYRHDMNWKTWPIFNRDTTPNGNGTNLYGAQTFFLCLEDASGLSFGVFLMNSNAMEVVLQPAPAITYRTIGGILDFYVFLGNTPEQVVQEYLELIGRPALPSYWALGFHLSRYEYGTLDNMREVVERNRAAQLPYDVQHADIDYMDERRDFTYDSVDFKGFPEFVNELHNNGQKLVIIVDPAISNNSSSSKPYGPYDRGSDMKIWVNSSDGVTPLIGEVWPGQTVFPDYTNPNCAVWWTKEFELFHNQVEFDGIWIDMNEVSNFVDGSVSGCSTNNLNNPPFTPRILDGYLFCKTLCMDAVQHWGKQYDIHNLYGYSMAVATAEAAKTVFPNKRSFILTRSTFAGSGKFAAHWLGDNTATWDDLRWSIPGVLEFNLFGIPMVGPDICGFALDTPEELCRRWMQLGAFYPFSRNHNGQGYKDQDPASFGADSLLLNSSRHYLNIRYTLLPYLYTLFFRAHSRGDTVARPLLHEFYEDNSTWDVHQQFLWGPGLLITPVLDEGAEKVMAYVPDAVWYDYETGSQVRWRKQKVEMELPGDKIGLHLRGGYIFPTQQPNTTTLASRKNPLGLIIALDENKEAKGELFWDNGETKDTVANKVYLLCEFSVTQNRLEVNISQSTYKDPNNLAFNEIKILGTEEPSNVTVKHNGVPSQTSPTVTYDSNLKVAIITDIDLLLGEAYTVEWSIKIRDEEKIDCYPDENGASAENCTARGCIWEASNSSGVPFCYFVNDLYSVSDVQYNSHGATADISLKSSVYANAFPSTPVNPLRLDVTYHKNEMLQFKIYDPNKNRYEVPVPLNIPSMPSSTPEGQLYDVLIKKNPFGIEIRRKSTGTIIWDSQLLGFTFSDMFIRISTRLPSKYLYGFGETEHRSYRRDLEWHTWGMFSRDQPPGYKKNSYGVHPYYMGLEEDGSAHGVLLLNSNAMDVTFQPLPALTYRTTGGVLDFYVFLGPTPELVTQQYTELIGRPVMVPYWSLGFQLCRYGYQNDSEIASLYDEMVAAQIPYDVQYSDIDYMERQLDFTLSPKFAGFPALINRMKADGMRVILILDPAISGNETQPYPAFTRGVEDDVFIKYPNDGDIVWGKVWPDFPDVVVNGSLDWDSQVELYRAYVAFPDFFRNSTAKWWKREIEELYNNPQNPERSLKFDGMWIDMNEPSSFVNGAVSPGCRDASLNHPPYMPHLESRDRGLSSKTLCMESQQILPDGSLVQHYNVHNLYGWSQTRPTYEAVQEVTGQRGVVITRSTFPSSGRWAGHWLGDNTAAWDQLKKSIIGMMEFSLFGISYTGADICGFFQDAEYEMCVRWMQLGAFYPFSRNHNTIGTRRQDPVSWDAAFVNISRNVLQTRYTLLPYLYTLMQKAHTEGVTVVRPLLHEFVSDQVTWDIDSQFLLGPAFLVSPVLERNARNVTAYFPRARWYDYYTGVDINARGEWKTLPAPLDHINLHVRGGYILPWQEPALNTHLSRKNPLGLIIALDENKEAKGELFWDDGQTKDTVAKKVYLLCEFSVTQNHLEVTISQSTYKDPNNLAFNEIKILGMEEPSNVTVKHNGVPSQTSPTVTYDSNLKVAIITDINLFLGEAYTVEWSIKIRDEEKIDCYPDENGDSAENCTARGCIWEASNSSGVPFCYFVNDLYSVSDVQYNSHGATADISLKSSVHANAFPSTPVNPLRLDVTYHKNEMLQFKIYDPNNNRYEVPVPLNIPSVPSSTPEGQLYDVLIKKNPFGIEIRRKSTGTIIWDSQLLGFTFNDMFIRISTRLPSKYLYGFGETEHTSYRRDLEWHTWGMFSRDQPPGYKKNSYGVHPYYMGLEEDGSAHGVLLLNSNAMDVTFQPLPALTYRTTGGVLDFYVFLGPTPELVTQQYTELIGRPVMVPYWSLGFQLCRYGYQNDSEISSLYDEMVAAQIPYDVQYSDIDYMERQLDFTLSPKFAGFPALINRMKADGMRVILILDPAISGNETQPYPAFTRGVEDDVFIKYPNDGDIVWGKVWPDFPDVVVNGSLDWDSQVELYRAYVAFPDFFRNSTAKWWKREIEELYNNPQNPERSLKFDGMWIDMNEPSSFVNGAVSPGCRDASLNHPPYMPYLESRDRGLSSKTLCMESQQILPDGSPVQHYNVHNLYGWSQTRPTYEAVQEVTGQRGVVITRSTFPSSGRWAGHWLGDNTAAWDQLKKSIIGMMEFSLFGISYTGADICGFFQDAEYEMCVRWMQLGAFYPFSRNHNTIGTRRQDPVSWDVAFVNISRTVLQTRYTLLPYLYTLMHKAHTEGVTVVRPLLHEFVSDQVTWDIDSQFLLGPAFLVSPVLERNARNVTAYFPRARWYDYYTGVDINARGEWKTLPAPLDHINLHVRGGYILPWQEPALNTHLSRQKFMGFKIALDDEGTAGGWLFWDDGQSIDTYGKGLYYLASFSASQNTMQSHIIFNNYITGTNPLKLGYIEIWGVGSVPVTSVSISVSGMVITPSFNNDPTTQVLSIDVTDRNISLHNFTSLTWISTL

IC50 [µM]	Structure (SMILES)
128	COc1ccc2c(c1)OC[C@H]1c3ccc(OC)c(O)c3O[C@@H]21
174	COc1ccc2c(c1OC)O[C@H]1c3ccc(O)cc3OC[C@@H]21
6	O=c1oc2cc(O)ccc2c2oc3cc(O)ccc3c12 [5,14-dihydroxy-8,17-dioxatetracyclo[8.7.0.0^{2,7}.0^{11,16}]heptadeca-1(10),2,4,6,11(16),12,14-heptaen-9-one]
